Experimental data as given in patent US5880147A, “Amide derivatives having ACAT inhibitory activity, their preparation and their therapeutic and prohylactic use” (Sankyo Company, Limited, priority 1995, dated 1999).
pIC50: −log10 of the molar value.

Biological target: T1, ACAT (acyl-CoA: cholesterol acyl transferase) (Mus musculus, UniProt Q61263)
T1 construct: endogenous in cells; host or cells: primary adherent peritoneal macrophages from unstimulated female DDY mice
T1 sequence (Q61263 1-540): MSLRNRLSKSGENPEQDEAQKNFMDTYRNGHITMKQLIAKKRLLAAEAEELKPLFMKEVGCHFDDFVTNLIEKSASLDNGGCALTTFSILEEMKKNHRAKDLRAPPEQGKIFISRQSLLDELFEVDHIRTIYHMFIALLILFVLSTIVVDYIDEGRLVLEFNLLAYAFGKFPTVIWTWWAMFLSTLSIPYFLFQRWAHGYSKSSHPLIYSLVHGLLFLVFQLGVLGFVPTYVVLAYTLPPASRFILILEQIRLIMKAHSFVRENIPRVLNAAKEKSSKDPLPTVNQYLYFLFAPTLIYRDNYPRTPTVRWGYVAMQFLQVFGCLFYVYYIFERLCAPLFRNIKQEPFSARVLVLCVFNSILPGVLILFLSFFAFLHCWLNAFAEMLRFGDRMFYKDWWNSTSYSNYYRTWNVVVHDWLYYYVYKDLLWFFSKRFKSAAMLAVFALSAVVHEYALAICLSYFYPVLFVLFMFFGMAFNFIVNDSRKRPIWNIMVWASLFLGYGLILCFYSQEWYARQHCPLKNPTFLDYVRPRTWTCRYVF
Assay: Inhibition of ACAT in M.phi. (mouse peritoneal macrophages)
Type: cell-based, mouse (female DDY mice)
Details: β-VLDL 50 μg cholesterol/ml, [14C]oleate-albumin, 37° C., 3 hours
Experimental: Blood was obtained [using the anticoagulant ethylene diamine tetraacetic acid (5 mM)] from Japanese White rabbits which had been fed a 2% w/w cholesterol diet for 2 weeks and then fasted overnight prior to removing the blood. β-VLDL (d<1.006 g/ml) was isolated by ultracentrifugation from the plasma according to the method of Hatch and Lees [Hatch, F T. and Lees, R S.,Adv. Lipid Res., 6 1-68 (1968)] and dialyzed at 4° C. against 10 mM of a sodium phosphate buffer (pH 7.4) containing 150 mM sodium chloride.
Peritoneal cells were harvested from unstimulated female DDY mice (body weight 20-30 g) in phosphate buffer saline (PBS) as described by Edelson and Cohn [Edelson, P J. and Cohn, Z A.,1976, "In Vitro Methods in Cell-Mediated and Tumor Immunity", editors Bloon, B R and David, J R., (Academic Press, New York), 330-340.]. The fluid from the mice was pooled and the cells were collected by centrifugation at 400×g for 10 minutes at 4° C., and washed once with PBS. The cells were resuspended in Dulbecco's modified Eagle's medium (DMEM) containing 10% (vol/vol) fetal calf serum (FCS), penicillin (100 units/ml), and streptomycin (100 μg/ml) at a final concentration of 3×10^6 cells per ml. Aliquots (1 ml) of this cell suspension were dispersed onto plastic petri dishes (35×10 mm) and then incubated in a CO2 incubator (5% CO2 /95% air) at 37° C. for 2 hours. Each dish was washed twice with PBS without serum to remove nonadherent cells.
Inhibition of ACAT in M.phi. was determined according to the method described by Brown et al. Brown, M S., Goldstein J L., Krieger, M., Ho, Y K. and Anderson, R G W. (1979) J. Cell Biol., 82, 597-613.]. Cholesterol reacylation was initiated by adding β-VLDL (final concentration 50 μg cholesterol/ml), [^14 C]oleate-albumin complex (final concentrations: 0.2 mM oleate and 0.6 mg/ml albumin) and a test compound dissolved in ethanol into the M.phi. monolayer, and the preparation was incubated at 37° C. for 3 hours in a CO2 incubator. Cells were washed three times with PBS and cellular lipid was extracted with 1 ml hexane/isopropanol (3:2 vol/vol). A lipid extract was evaporated to dryness in a stream of nitrogen. Cholesterol [^14 C]oleated was seperated by thin layer chromatography through silica gel using an 85:15:1 by volume mixture of hexane, diethyl ether and acetic acid as developing solvents. The ACAT activity in M.phi. was determined by measuring the radioactivity and an inhibition rate (%) was calculated by comparing a control activity with those of the test compound at given concentrations. The results are shown in the following Table, in which the compounds of the present invention are identified by the number of the Example given hereafter in which they are prepared.

| pIC50 | Compound |
| --- | --- |
| 7.22 | CCCCCC(CC(=O)Nc1cc(C(=O)NC)ccc1C(C)(C)C)c1ccc(OC)cc1OC (stereo not drawn) [Example 1, N-(2-t-Butyl-5-N'-methylcarbamoylphenyl)-3-(2,4-dimethoxphenyl)octanamide] |
| 7.45 | CCCCCC(CC(=O)Nc1cc(CN2C(=O)c3ccccc3C2=O)ccc1C(C)(C)C)c1cccc2c1OCCO2 (stereo not drawn) [Example 142, N-[2-t-Butyl-5-(phthalimidomethyl)phenyl]-3-(2,3-ethylenedioxyphenyl)octanamide] |
| 7.20 | CCCCCC(CC(=O)Nc1cc(C(=O)NC)ccc1C(C)(C)C)c1cc(C(=O)NC)c(OC)cc1OC (stereo not drawn) [Example 35, N-(2-t-Butyl-5-N'-methylcarbamoylphenyl)-3-(2,4-dimethoxy-5-N"-methylcarbamoylphenyl)octanamide] |
| 7.10 | CCCCCC(CC(=O)Nc1cc(CCC(=O)NC)ccc1C(C)(C)C)c1cc(OC)c(OC)cc1OC (stereo not drawn) [Example 186, N-[2-t-Butyl-5-(3-methylamino-3-oxopropyl)phenyl]-3-(2,4,5-trimethoxyphenyl)octanamide] |
| 8.86 | CCCCCC(CC(=O)Nc1cc(C(=O)Nc2ccccn2)ccc1C(C)(C)C)c1c(OC)cccc1OC (stereo not drawn) [Example 165, N-{2-t-Butyl-5-[N-(2-pyridyl)carbamoyl]phenyl}-3-(2,6-dimethoxyphenyl)octanamide] |
| 7.17 | CCCCCC(CC(=O)Nc1cc(COC(N)=O)ccc1C(C)(C)C)c1ccc(OC)cc1OC (stereo not drawn) [Example 5, N-[2-t-Bu=l-5-(carbamoyloxymethyl)phenyl]-3-(2,4-dimethoxyphenyl)octanamide] |
| 7.52 | CCCCCC(CC(=O)Nc1cc(C(=O)NC)ccc1C(C)(C)C)c1ccc(OCC(=O)NCCCC)cc1OC (stereo not drawn) [Example 64, N-(2-t-Butyl-5-N'-methylcarbamoylphenyl)-3-(4-N"-butylcarbamoylmethloxy-2-methoxyphenyl)octanamide] |
| 8.02 | CCCCCC(CC(=O)Nc1cc(C(=O)NC(=O)c2cccnc2)ccc1C(C)(C)C)c1ccc(OC)cc1OC (stereo not drawn) [Example 136, N-{2-t-Butyl-5-[(3-pyridyl)carbonlaminocarbonyl]phenyl}-3-(2,4-dimethoxyphenyl)octanamide] |
| 7.75 | CCCCCC(CC(=O)Nc1cc(CNC(=O)c2cccnc2)ccc1C(C)(C)C)c1ccc(OC)cc1OC (stereo not drawn) [Example 158, N-[2-t-Butyl-5-(N'-3-pyridylcarbonylaminomethyl)phenyl]-3-(2,4-dimethoxyphenyl)octanamide] |
| 7.63 | CCCCCCC(CC(=O)Nc1cc(C(N)=O)ccc1C(C)(C)C)c1ccc(OC)cc1OC (stereo not drawn) [Example 44, N-(2-t-Butyl-5-carbamoylphenyl)-3-(2,4-dimethoxyphenyl)nonanamide] |
| 7.76 | CCCCCC(CC(=O)Nc1cc(C(=O)NC(=O)C(C)C)ccc1C(C)(C)C)c1ccc(OC)cc1OC (stereo not drawn) [Example 131, N-[2-t-Butyl-5-(2-methylpropanoyl)aminocarbonylphenyl)-3-(2,4-dimethoxyphenyl]octanamide] |
| 7.98 | CCCCCC(CC(=O)Nc1cc(CNC(=O)N(C)C)ccc1C(C)(C)C)c1ccc(OC)cc1OC (stereo not drawn) [Example 23, N-[2-t-Butyl-5-(N',N'-dimethylaminocarbonylaminomethyl)phenyl]-3-(2,4-dimethoxyphenyl)octanamide] |
| 7.38 | CCCCCC(CC(=O)Nc1cc(C(N)=O)ccc1C(C)(C)C)c1ccc(OC)cc1OC (stereo not drawn) [Example 2, N-(2-t-Butyl-5-carbamoylphenyl)-3-(2,4-dimethoxyphenyl)octanamide] |
| 7.51 | CCCCCC(CC(=O)Nc1cc(CC(=O)NC)ccc1C(C)(C)C)c1ccc(OC)cc1OC (stereo not drawn) [Example 3] |
| 7.76 | CCCCCC(CC(=O)Nc1cc(CNC(=O)NC(C)C)ccc1C(C)(C)C)c1cccc2c1OCCO2 (stereo not drawn) [Example 173, N-[2-t-Butyl-5-(N'-isopropylureidomethyl)phenyl]-3-(2,3-ethylenedioxyphenyl)octanamide] |
| 8.01 | CCCCCC(CC(=O)Nc1cc(CNS(=O)(=O)CC)ccc1C(C)(C)C)c1ccc(OC)cc1OC (stereo not drawn) [Example 11, N-[2-t-Butyl-5-(ethylsulfonylaminomethyl)phenyl]-3-(2,4-dimethoxyphenyl)octanamide] |
| 7.54 | CCCCCC(CC(=O)Nc1cc(CC#N)ccc1C(C)(C)C)c1ccc(OC)cc1OC (stereo not drawn) [Example 19, N-(2-t-Butyl-5-cyanomethylphenyl)-3-(2,4-dimethoxyphenyl)octanamide] |
| 8.22 | CCCCCC(CC(=O)Nc1cc(CC(N)=O)ccc1C(C)(C)C)c1ccc(OC)cc1OC (stereo not drawn) [Example 4, N-[2-t-Butyl-5-(carbamoylmethyl)phenyl]-3-(2,4-dimethoxyphenyl)octanamide] |
